US8580799B2 (priority 2008, dated 2013)

Test: Measurement of logP values by HPLC on reversed phase columns (EEC directive 79/831 Annex V.A8)
Assay type: physicochemical
Conditions: method [b]: LC-MS at pH 2.7 with 0.1% formic acid in water and acetonitrile, linear gradient 10% to 95% acetonitrile

| SMILES | logp |
| --- | --- |
| CCCCC#Cc1nc(CON=C(c2ccc(F)cc2)c2nonc2C)cs1 [Example 44] | 5.99^[b] |
| CCCCC#Cc1nc(CON=C(c2ccccc2)c2nonc2C)cs1 [Example 45] | 5.51^[b] |
| CCCCC#Cc1nc(CON=C(c2cccc(F)c2)c2nonc2C)cs1 [Example 46] | 5.59^[b] |
| CCCCC#Cc1nc(CON=C(c2ccccc2F)c2nonc2C)cs1 [Example 47] | 5.39^[b] |
| Cn1nccc1C(=NOCc1csc(N)n1)c1ccccc1 [Example 48] | 1.5^[b] |
| Cn1nccc1C(=NOCc1csc(Br)n1)c1ccccc1 [Example 49] | 3.39^[b] |
| Cn1nccc1C(=NOCc1csc(NC(=O)COc2ccccc2)n1)c1ccccc1 [Example 50] | 3.55^[b] |
| Cn1nccc1C(=NOCc1csc(NC(=O)CCc2ccccc2)n1)c1ccccc1 [Example 51] | 3.69^[b] |
| CCCCCC(=O)Nc1nc(CON=C(c2ccccc2)c2ccnn2C)cs1 [Example 52] | 3.8^[b] |
| Cn1nccc1C(=NOCc1csc(NC(=O)Cc2ccccc2)n1)c1ccccc1 [Example 53] | 3.42^[b] |
| Cn1nccc1C(=NOCc1csc(NC(=O)C(C)(C)C)n1)c1ccccc1 [Example 54] | 3.46^[b] |
| CCCCC(=O)Nc1nc(CON=C(c2ccccc2)c2ccnn2C)cs1 [Example 55] | 3.39^[b] |
| CCCCCCC(=O)Nc1nc(CON=C(c2ccccc2)c2ccnn2C)cs1 [Example 56] | 4.18^[b] |
| Cn1nccc1C(=NOCc1csc(NC(=O)OCCCCCl)n1)c1ccccc1 [Example 57] | 3.65^[b] |
| CCCCOC(=O)Nc1nc(CON=C(c2ccccc2)c2ccnn2C)cs1 [Example 58] | 3.76^[b] |
| CCCCCCOC(=O)Nc1nc(CON=C(c2ccccc2)c2ccnn2C)cs1 [Example 59] | 4.59^[b] |
| CCCCCOC(=O)Nc1nc(CON=C(c2ccccc2)c2ccnn2C)cs1 [Example 60] | 4.16^[b] |
| C#CCCOC(=O)Nc1nc(CON=C(c2ccccc2)c2ccnn2C)cs1 [Example 61] | 3.11^[b] |
| Cn1nccc1C(=NOCc1csc(C#CC2CC2)n1)c1ccccc1 [Example 62] | 3.87^[b] |
| Cn1nccc1C(=NOCc1csc(NC(=O)OC(C)(C)C)n1)c1ccccc1 [Example 63] | 3.69^[b] |
| CCOC(=O)Nc1nc(CON=C(c2ccccc2)c2ccnn2C)cs1 [Example 64] | 3^[b] |

Same assay, conditions: reversed phase HPLC column; HCOOH (formic acid) method; read-out: log P(HCOOH)

| SMILES | chromatographic logP |
| --- | --- |
| Cc1nsnc1C(=NO)c1ccccc1 [N-hydroxy-1-(4-methyl-1,2,5-thiadiazol-3-yl)-1-phenylmethanimine] | 2.26 |
| CCCCCCN(C(=O)OC(C)(C)C)c1cccc(CO)n1 [tert-butyl hexyl[6-(hydroxymethyl)pyridin-2-yl]carbamate] | 3.94 |
